Patent publication US20240398831A1, “COMPOSITIONS COMPRISING SMALL MOLECULE REGULATORS OF TUMOR IMMUNITY AND METHODS OF USING SAME” (Duke University, priority 2021, published 2024)

Tested on: WNT5A and TCF4 target genes
Test: Quantitative PCR of tumor infiltrating myeloid cells from iBP tumors
Format: in vivo, mouse
Experimental: All target genes were normalized to Rplp0 and then siEsr1 (FIG. 14E) or DMSO (FIG. 14F) samples were normalized to siRNA control. Data are represented as mean±S.E.M. Significance was calculated by Student's t test (FIGS. 14C-14D) (*p<0.05, **p<0.01, and ***p<0.001).
Quantitative PCR of tumor Infiltrating myeloid cells. Tumor infiltrating myeloid cells were isolated from iBP tumors using a CD11b isolation kit (catalog #18970, StemCell Technologies). RNA was isolated using RNA Aqueous Micro kit (catalog #1931, Ambion) followed by cDNA synthesis using an iScript cDNA synthesis kit (Cat #170-7691). Quantitative amplification was performed using Sybr Green (Cat #1725124, Bio-Rad) and a CFX-384 Real Time PCR detection system. Primers used are listed below in TABLE 1.

17β-estradiol [E2]
genes in the WNT5A and TCF4 pathways (E2 compared to placebo): differentially regulated | expression of Vegfa, Tgm2 and Tspo and Stat1 (myeloid cells from E2 treated tumors): increased expression
